Test results published in patent publication US12077503B2, “Substituted cyclic amides and their use as herbicides” (FMC CORPORATION, priority 2015, dated 2024).

Assays:
Format in all cases: in vivo
corn (Zea mays) [1] = assay: Test G Post-Emergence Protocol; settings: Zea mays, post-emergence, 312 h, read-out: Corn damage rating; for plant injury at 15.625 g/ha: 15.625 g ai/ha, evaluated after 13 days (100=total damage to plant; 0=no damage to plant); for plant injury at 62.5 g/ha: 62.5 g ai/ha; for plant injury at 62.5 g/ha / plant injury at 250 g/ha: evaluated after 13 days, 100=total damage to plant, 0=no damage to plant; for plant injury at 250 g/ha: 250 g ai/ha
In short: (§1)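 Scores run 0 (no damage) to 100 (total damage) and were taken 13 days after spraying. Plants had been raised in pots for 8 days under glasshouse control (24/16 °C, 14 h photoperiod, 65% humidity) and then treated at 15.625, 62.5 or 250 g/ha.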

[2] = tested on: redroot pigweed (Amaranthus retroflexus); assay: Test G Post-Emergence Protocol; settings: Amaranthus retroflexus, post-emergence, 312 h, read-out: Pigweed, Redroot damage rating; for pest or weed control at 15.625 g/ha: 15.625 g ai/ha, evaluated after 13 days (100=total damage to plant; 0=no damage to plant); for pest or weed control at 62.5 g/ha: 62.5 g ai/ha; for pest or weed control at 62.5 g/ha / pest or weed control at 250 g/ha: evaluated after 13 days, 100=total damage to plant, 0=no damage to plant; for pest or weed control at 250 g/ha: 250 g ai/ha
In short: as §1

[3] = tested on: ivy-leaved morning glory (Ipomoea hederacea); assay: Test G Post-Emergence Protocol; settings: Ipomoea, post-emergence, 312 h, read-out: Morningglory, Ivy-leaved damage rating; for pest or weed control at 15.625 g/ha: 15.625 g ai/ha, evaluated after 13 days (100=total damage to plant; 0=no damage to plant); for pest or weed control at 62.5 g/ha: 62.5 g ai/ha; for pest or weed control at 62.5 g/ha / pest or weed control at 250 g/ha: evaluated after 13 days, 100=total damage to plant, 0=no damage to plant; for pest or weed control at 250 g/ha: 250 g ai/ha
In short: as §1

[4] = tested on: velvetleaf (Abutilon theophrasti); assay: Test G Post-Emergence Protocol; settings: Abutilon theophrasti, post-emergence, 312 h, read-out: Velvetleaf damage rating; for pest or weed control at 15.625 g/ha: 15.625 g ai/ha, evaluated after 13 days (100=total damage to plant; 0=no damage to plant); for pest or weed control at 62.5 g/ha: 62.5 g ai/ha; for pest or weed control at 62.5 g/ha / pest or weed control at 250 g/ha: evaluated after 13 days, 100=total damage to plant, 0=no damage to plant; for pest or weed control at 250 g/ha: 250 g ai/ha
In short: as §1

[5] = tested on: giant foxtail (Setaria faberi); assay: Test G Post-Emergence Protocol; settings: Setaria faberi, post-emergence, 312 h, read-out: Foxtail, Giant damage rating; for pest or weed control at 15.625 g/ha: 15.625 g ai/ha, evaluated after 13 days (100=total damage to plant; 0=no damage to plant); for pest or weed control at 62.5 g/ha: 62.5 g ai/ha; for pest or weed control at 62.5 g/ha / pest or weed control at 250 g/ha: evaluated after 13 days, 100=total damage to plant, 0=no damage to plant; for pest or weed control at 250 g/ha: 250 g ai/ha
In short: as §1

[6] = tested on: barnyardgrass (Echinochloa crus-galli); assay: Test G Post-Emergence Protocol; settings: Echinochloa crus-galli, post-emergence, 312 h, read-out: Barnyardgrass damage rating; for pest or weed control at 15.625 g/ha: 15.625 g ai/ha, evaluated after 13 days (100=total damage to plant; 0=no damage to plant); for pest or weed control at 62.5 g/ha: 62.5 g ai/ha; for pest or weed control at 62.5 g/ha / pest or weed control at 250 g/ha: evaluated after 13 days, 100=total damage to plant, 0=no damage to plant; for pest or weed control at 250 g/ha: 250 g ai/ha
In short: as §1

corn (Zea mays) [7] = assay: Test G Pre-Emergence Protocol; settings: Zea mays, pre-emergence, 312 h, evaluated after 13 days; for plant injury at 15.625 g/ha: 15.625 g ai/ha; for plant injury at 15.625 g/ha / plant injury at 250 g/ha: read-out: Corn damage rating (100=total damage to plant; 0=no damage to plant); for plant injury at 62.5 g/ha: 62.5 g ai/ha, 100=total damage to plant, 0=no damage to plant, read-out: Corn damage rating; for plant injury at 250 g/ha: 250 g ai/ha
In short: (§2)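 Glasshouse pre-emergence test: soil-sown seeds, sprayed after 1 d at 15.625, 62.5 or 250 g/ha. Conditions 24/16° C day/night, 14 h light, 65% humidity, watering twice daily. Rating 13 d post-spray (100 = total damage).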

[8] = tested on: redroot pigweed (Amaranthus retroflexus); assay: Test G Pre-Emergence Protocol; settings: Amaranthus retroflexus, pre-emergence, 312 h, evaluated after 13 days; for pest or weed control at 15.625 g/ha: 15.625 g ai/ha; for pest or weed control at 15.625 g/ha / pest or weed control at 250 g/ha: read-out: Pigweed, Redroot damage rating (100=total damage to plant; 0=no damage to plant); for pest or weed control at 62.5 g/ha: 62.5 g ai/ha, 100=total damage to plant, 0=no damage to plant, read-out: Pigweed, Redroot damage rating; for pest or weed control at 250 g/ha: 250 g ai/ha
In short: as §2

[9] = tested on: ivy-leaved morning glory (Ipomoea hederacea); assay: Test G Pre-Emergence Protocol; settings: Ipomoea, pre-emergence, 312 h, evaluated after 13 days; for pest or weed control at 15.625 g/ha: 15.625 g ai/ha; for pest or weed control at 15.625 g/ha / pest or weed control at 250 g/ha: read-out: Morningglory, Ivy-leaved damage rating (100=total damage to plant; 0=no damage to plant); for pest or weed control at 62.5 g/ha: 62.5 g ai/ha, 100=total damage to plant, 0=no damage to plant, read-out: Morningglory, Ivy-leaved damage rating; for pest or weed control at 250 g/ha: 250 g ai/ha
In short: as §2

[10] = tested on: velvetleaf (Abutilon theophrasti); assay: Test G Pre-Emergence Protocol; settings: Abutilon theophrasti, pre-emergence, 312 h, evaluated after 13 days; for pest or weed control at 15.625 g/ha: 15.625 g ai/ha; for pest or weed control at 15.625 g/ha / pest or weed control at 250 g/ha: read-out: Velvetleaf damage rating (100=total damage to plant; 0=no damage to plant); for pest or weed control at 62.5 g/ha: 62.5 g ai/ha, 100=total damage to plant, 0=no damage to plant, read-out: Velvetleaf damage rating; for pest or weed control at 250 g/ha: 250 g ai/ha
In short: as §2

[11] = tested on: giant foxtail (Setaria faberi); assay: Test G Pre-Emergence Protocol; settings: Setaria faberi, pre-emergence, 312 h, evaluated after 13 days; for pest or weed control at 15.625 g/ha: 15.625 g ai/ha; for pest or weed control at 15.625 g/ha / pest or weed control at 250 g/ha: read-out: Foxtail, Giant damage rating (100=total damage to plant; 0=no damage to plant); for pest or weed control at 62.5 g/ha: 62.5 g ai/ha, 100=total damage to plant, 0=no damage to plant, read-out: Foxtail, Giant damage rating; for pest or weed control at 250 g/ha: 250 g ai/ha
In short: as §2

[12] = tested on: barnyardgrass (Echinochloa crus-galli); assay: Test G Pre-Emergence Protocol; settings: Echinochloa crus-galli, pre-emergence, 312 h, evaluated after 13 days; for pest or weed control at 15.625 g/ha: 15.625 g ai/ha; for pest or weed control at 15.625 g/ha / pest or weed control at 250 g/ha: read-out: Barnyardgrass damage rating (100=total damage to plant; 0=no damage to plant); for pest or weed control at 62.5 g/ha: 62.5 g ai/ha, 100=total damage to plant, 0=no damage to plant, read-out: Barnyardgrass damage rating; for pest or weed control at 250 g/ha: 250 g ai/ha
In short: as §2

SMILES | plant injury at 15.625 g/ha (corn (Zea mays) [1]) [%] | plant injury at 62.5 g/ha (corn (Zea mays) [1]) [%] | plant injury at 250 g/ha (corn (Zea mays) [1]) [%] | pest or weed control at 15.625 g/ha [2] [%] | pest or weed control at 62.5 g/ha [2] [%] | pest or weed control at 250 g/ha [2] [%] | pest or weed control at 15.625 g/ha [3] [%] | pest or weed control at 62.5 g/ha [3] [%] | pest or weed control at 250 g/ha [3] [%] | pest or weed control at 15.625 g/ha [4] [%] | pest or weed control at 62.5 g/ha [4] [%] | pest or weed control at 250 g/ha [4] [%] | pest or weed control at 15.625 g/ha [5] [%] | pest or weed control at 62.5 g/ha [5] [%] | pest or weed control at 250 g/ha [5] [%] | pest or weed control at 15.625 g/ha [6] [%] | pest or weed control at 62.5 g/ha [6] [%] | pest or weed control at 250 g/ha [6] [%] | plant injury at 15.625 g/ha (corn (Zea mays) [7]) [%] | plant injury at 62.5 g/ha (corn (Zea mays) [7]) [%] | further results
Cc1cc([C@H]2CN(C)C(=O)[C@@H]2C(=O)Nc2cccc(F)n2)cc(C(F)(F)F)c1 (racemic) [Compound 1801] | 10 | 70 | 80 | 0 | 0 | 40 | 0 | 10 | 50 | 0 | 0 | 0 | 70 | 80 | 80 | 20 | 60 | 70 | 10 | 40 | plant injury at 250 g/ha (corn (Zea mays) [7]): 80%; pest or weed control at 15.625 g/ha [8]: 0%; pest or weed control at 62.5 g/ha [8]: 20%; pest or weed control at 250 g/ha [8]: 40%; pest or weed control at 15.625 g/ha [9]: 0%; pest or weed control at 62.5 g/ha [9]: 0%; pest or weed control at 250 g/ha [9]: 40%; pest or weed control at 15.625 g/ha [10]: 0%; pest or weed control at 62.5 g/ha [10]: 10%; pest or weed control at 250 g/ha [10]: 20%; pest or weed control at 15.625 g/ha [11]: 80%; pest or weed control at 62.5 g/ha [11]: 90%; pest or weed control at 250 g/ha [11]: 90%; pest or weed control at 15.625 g/ha [12]: 40%; pest or weed control at 62.5 g/ha [12]: 80%; pest or weed control at 250 g/ha [12]: 90%
Cc1c(F)cccc1NC(=O)[C@@H]1C(=O)N(C)C[C@H]1c1ccnc(OCC(F)(F)F)c1 (racemic) [Compound 1802] | 0 | 0 | 60 | 0 | 0 | 40 | 0 | 0 | 0 | 0 | 40 | 70 | 40 | 70 | 80 | 0 | 60 | 70 | 0 | 0 | plant injury at 250 g/ha (corn (Zea mays) [7]): 70%; pest or weed control at 15.625 g/ha [8]: 0%; pest or weed control at 62.5 g/ha [8]: 10%; pest or weed control at 250 g/ha [8]: 30%; pest or weed control at 15.625 g/ha [9]: 0%; pest or weed control at 62.5 g/ha [9]: 0%; pest or weed control at 250 g/ha [9]: 40%; pest or weed control at 15.625 g/ha [10]: 0%; pest or weed control at 62.5 g/ha [10]: 20%; pest or weed control at 250 g/ha [10]: 70%; pest or weed control at 15.625 g/ha [11]: 70%; pest or weed control at 62.5 g/ha [11]: 90%; pest or weed control at 250 g/ha [11]: 90%; pest or weed control at 15.625 g/ha [12]: 10%; pest or weed control at 62.5 g/ha [12]: 70%; pest or weed control at 250 g/ha [12]: 90%
